Data reported in ChEMBL document CHEMBL4818987, “Recent advances of podophyllotoxin/epipodophyllotoxin hybrids in anticancer activity, mode of action, and structure-activity relationship: An update (2010-2020)” (Eur J Med Chem, 2020).

What was measured:
A549 [1] = experiment: Antiproliferative activity against human A549 cells incubated for 48 hrs by MTT assay; type: functional, cell-based; conditions: A549, 48 h
MCF7 [2] = experiment: Antiproliferative activity against human MCF7 cells incubated for 48 hrs by MTT assay; type: functional, cell-based; conditions: MCF7, 48 h
BGC-823 [3] = experiment: Antiproliferative activity against human BGC-823 cells incubated for 48 hrs by MTT assay; type: functional, cell-based; conditions: BGC-823, 48 h
HeLa [4] = experiment: Potency index, ratio of etoposide IC50 to test compound IC50 for antiproliferative activity against human HeLa cells; type: functional
A549 [5] = experiment: Potency index, ratio of etoposide IC50 to test compound IC50 for antiproliferative activity against human A549 cells; type: functional
MCF7 [6] = experiment: Potency index, ratio of etoposide IC50 to test compound IC50 for antiproliferative activity against human MCF7 cells; type: functional
BGC-823 [7] = experiment: Potency index, ratio of etoposide IC50 to test compound IC50 for antiproliferative activity against human BGC-823 cells; type: functional
Huh-7 [8] = experiment: Antiproliferative activity against human Huh7 cells incubated for 48 hrs by MTT assay; type: functional, cell-based; conditions: Huh-7, 48 h
Huh-7 [9] = experiment: Potency index, ratio of etoposide IC50 to test compound IC50 for antiproliferative activity against human Huh-7 cells; type: functional
K562 [10] = experiment: Cytotoxicity against human K562 cells by MTT assay; type: functional, cell-based
K562/A02 = experiment: Cytotoxicity against human K562/A02 cells by MTT assay; type: functional, cell-based
HeLa [11] = experiment: Antiproliferative activity against human HeLa cells incubated for 48 hrs by MTT assay; type: functional, cell-based
K562 [12] = experiment: Antiproliferative activity against human K562 cells; type: functional, cell-based
HCT-116 = experiment: Antiproliferative activity against human HCT116 cells; type: functional, cell-based
SMMC-7721 = experiment: Antiproliferative activity against human SMMC-7721 cells; type: functional, cell-based
LNCaP = experiment: Antiproliferative activity against human LNCaP cells; type: functional, cell-based
SK-BR-3 = experiment: Antiproliferative activity against human SK-BR-3 cells; type: functional, cell-based
U-251 = experiment: Antiproliferative activity against human U251 cells; type: functional, cell-based
K562/Adr = experiment: Antiproliferative activity against human K562/ADR cells; type: functional, cell-based
HFF = experiment: Cytotoxicity against human HFF cells; type: cell-based
L02 [13] = experiment: Cytotoxicity against human HL7702 cells; type: cell-based
[14] = Selectivity index, ratio of IC50 for human HFF cells to IC50 for human A549 cells; type: toxicity; conditions: pooled result: one value given for 20 cell lines, strains, targets or settings, read-out: Ratio IC50
A549 [15] = experiment: Antiproliferative activity against human A549 cells incubated for 24 hrs by MTT assay; type: functional, cell-based; conditions: A549, 24 h
HeLa [16] = experiment: Antiproliferative activity against human HeLa cells incubated for 24 hrs by MTT assay; type: functional, cell-based
[17] = Selectivity ratio of IC50 for human L02 cells to IC50 for human Calu-1 cells; type: toxicity; conditions: L02 cells / Calu-1 cells, read-out: Ratio IC50
[18] = Selectivity ratio of IC50 for human L02 cells to IC50 for human HeLa cells; type: toxicity; conditions: read-out: Ratio IC50
[19] = Selectivity ratio of IC50 for African green monkey Vero cells to IC50 for human A549 cells; type: toxicity; conditions: read-out: Ratio IC50
[20] = Selectivity ratio of IC50 for African green monkey Vero cells to IC50 for human Calu-1 cells; type: toxicity; conditions: Vero cells / Calu-1 cells, read-out: Ratio IC50
Calu-1 = experiment: Antiproliferative activity against human Calu-1 cells incubated for 24 hrs by MTT assay; type: functional, cell-based; conditions: Calu-1, 24 h
[21] = Selectivity ratio of IC50 for African green monkey Vero cells to IC50 for human HeLa cells; type: toxicity; conditions: read-out: Ratio IC50
Vero = experiment: Cytotoxicity against African green monkey Vero cells; type: cell-based; conditions: Chlorocebus sabaeus
L02 [22] = experiment: Cytotoxicity against human L02 cells; type: cell-based
[23] = Selectivity ratio of IC50 for human L02 cells to IC50 for human A549 cells; type: toxicity; conditions: read-out: Ratio IC50
[24] = Cytotoxicity against human MUM-2B cells incubated for 72 hrs by CCK8 assay; type: functional, cell-based
[25] = Cytotoxicity against human C918 cells incubated for 72 hrs by CCK8 assay; type: functional, cell-based; conditions: C918, 72 h
HeLa [26] = experiment: Cytotoxicity against human HeLa cells by MTT assay; type: functional, cell-based
[27] = Resistance index, ratio of IC50 for human K562/AO2 cells to IC50 for human K562 cells; type: functional

COc1cc([C@@H]2c3cc4c(cc3[C@@H](Nc3ncccc3F)[C@H]3COC(=O)[C@H]23)OCO4)cc(OC)c1O
IC50 (A549 [1]): 60 nM
IC50 (MCF7 [2]): 60 nM
IC50 (BGC-823 [3]): 60 nM
Ratio IC50 (HeLa [4]): 3.3
Ratio IC50 (A549 [5]): 3.3
Ratio IC50 (MCF7 [6]): 3.3
Ratio IC50 (BGC-823 [7]): 3.3
IC50 (Huh-7 [8]): 60 nM
Ratio IC50 (Huh-7 [9]): 3.3

COc1cc([C@@H]2c3cc4c(cc3[C@@H](NC(=O)C(=O)c3c[nH]c5ccc(C(=O)NC(C)C)cc35)[C@H]3COC(=O)[C@H]23)OCO4)cc(OC)c1OC
IC50 (K562 [10]): 1270 nM
IC50 (K562/A02): 1270 nM

COc1cc([C@@H]2c3cc4c(cc3[C@@H](Nc3ncccc3F)[C@H]3COC(=O)[C@H]23)OCO4)cc(OC)c1OC
IC50 (HeLa [11]): 60 nM
IC50 (A549 [1]): 60 nM
IC50 (MCF7 [2]): 60 nM
IC50 (BGC-823 [3]): 60 nM
Ratio IC50 (HeLa [4]): 3.3
Ratio IC50 (A549 [5]): 3.3
Ratio IC50 (MCF7 [6]): 3.3
Ratio IC50 (BGC-823 [7]): 3.3
IC50 (Huh-7 [8]): 60 nM
Ratio IC50 (Huh-7 [9]): 3.3

COC(=O)c1ccc(-c2cn(CC(=O)O[C@H]3c4cc5c(cc4[C@@H](c4cc(OC)c(OC)c(OC)c4)[C@H]4C(=O)OC[C@@H]43)OCO5)nn2)cc1
IC50 (K562 [12]): 19.6 nM
IC50 (HCT-116): 19.6 nM
IC50 (SMMC-7721): 19.6 nM
IC50 (LNCaP): 19.6 nM
IC50 (SK-BR-3): 19.6 nM
IC50 (U-251): 19.6 nM
IC50 (K562/Adr): 19.6 nM
IC50 (HFF): 195 nM
IC50 (L02 [13]): 565 nM
selectivity ratio [14]: 3.5

COc1cc([C@@H]2c3cc4c(cc3[C@H](OC(=O)CCCCC3CCSC(c5ccc(C(F)(F)F)cc5)S3)[C@H]3COC(=O)[C@H]23)OCO4)cc(OC)c1OC (some centres undefined)
IC50 (A549 [15]): 2680 nM
IC50 (HeLa [16]): 2680 nM
selectivity ratio [17]: ≥ 9.7
selectivity ratio [18]: ≥ 9.7
selectivity ratio [19]: ≥ 9.7
selectivity ratio [20]: ≥ 9.7
IC50 (Calu-1): 2680 nM
selectivity ratio [21]: ≥ 9.7
IC50 (Vero): > 93.8 µM
IC50 (L02 [22]): > 93.8 µM
selectivity ratio [23]: ≥ 9.7

COc1cc(/C=C/c2ccc(OCCC(=O)O[C@H]3c4cc5c(cc4[C@@H](c4cc(OC)c(OC)c(OC)c4)[C@H]4C(=O)OC[C@@H]43)OCO5)cc2)cc(OC)c1
IC50 [24]: 81 nM
IC50 [25]: 81 nM

COc1cc([C@@H]2c3cc4c(cc3[C@H](OC(=O)CCCCC3CCSC(c5cccc(C(F)(F)F)c5)S3)[C@H]3COC(=O)[C@H]23)OCO4)cc(OC)c1OC (some centres undefined)
IC50 (A549 [15]): 2680 nM
IC50 (HeLa [16]): 2680 nM
selectivity ratio [17]: ≥ 9.7
selectivity ratio [18]: ≥ 9.7
selectivity ratio [19]: ≥ 9.7
selectivity ratio [20]: ≥ 9.7
IC50 (Calu-1): 2680 nM
selectivity ratio [21]: ≥ 9.7
IC50 (Vero): > 93.8 µM
IC50 (L02 [22]): > 93.8 µM
selectivity ratio [23]: ≥ 9.7

COc1cc([C@@H]2c3cc4c(cc3[C@@H](c3c[nH]c5ccc(OCc6ccc(C(C)(C)C)cc6)cc35)[C@H]3COC(=O)[C@H]23)OCO4)cc(OC)c1OC
IC50 (HeLa [26]): > 260 nM
IC50 (K562 [10]): > 260 nM
IC50 (K562/A02): 289 nM
Ratio IC50 [27]: 0.004
